Assay results from patent publication US5766848A (Synaptic Pharmaceutical Corporation, priority 1994, dated 1998).
Several values for one entry are separate records, joined by “and”; a condition that tells them apart may be missing. Equal entries are not always repeated. Structures can show the parent of a compound that is named as a salt. Where two headings read alike, the source gives them in different places.

Legend:
dog BGT-1 = conditions: read-out: IC50, dog VGT-1, inhibition of [3H]GABA uptake; oocytes (Yamauchi et al., 1992); except GABA estimated from percent inhibition at a single concentration; cited from earlier work
human BGT-1 [1] = biological target: T1, human BGT-1 (Homo sapiens, UniProt P48065); test: cell-based
T1 sequence (P48065 1-614 C10Y): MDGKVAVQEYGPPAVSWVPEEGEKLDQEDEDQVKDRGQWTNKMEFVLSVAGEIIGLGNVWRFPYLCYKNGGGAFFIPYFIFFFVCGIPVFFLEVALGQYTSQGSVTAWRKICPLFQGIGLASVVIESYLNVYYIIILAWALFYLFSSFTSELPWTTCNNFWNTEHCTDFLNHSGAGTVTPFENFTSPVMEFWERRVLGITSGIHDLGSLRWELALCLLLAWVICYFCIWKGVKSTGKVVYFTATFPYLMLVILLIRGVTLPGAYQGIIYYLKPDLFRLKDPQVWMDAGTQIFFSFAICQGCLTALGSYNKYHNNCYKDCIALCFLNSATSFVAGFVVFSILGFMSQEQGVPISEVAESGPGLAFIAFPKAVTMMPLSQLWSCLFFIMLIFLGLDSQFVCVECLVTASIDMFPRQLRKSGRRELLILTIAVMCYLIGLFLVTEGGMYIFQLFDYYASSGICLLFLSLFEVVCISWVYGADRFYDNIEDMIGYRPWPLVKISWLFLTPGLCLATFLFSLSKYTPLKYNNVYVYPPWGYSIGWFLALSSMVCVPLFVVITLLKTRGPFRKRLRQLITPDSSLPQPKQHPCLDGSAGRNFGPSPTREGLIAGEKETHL
Experimental: (§2) Cells were grown under standard conditions (37° C., 5% CO2) in Dulbecco's modified Eagles's medium (GIBCO, Grand Island, N.Y.).
(§3) After 10 minutes the medium was removed and unlabeled drugs in HBS were added (450 μl/well). […] Plates were incubated at 37° C. for 10 minutes, then washed rapidly 3× with ice-cold HBS, using a 24-position plate washer (Brandel, Gaithersburg, Mass.; model PW-12). Cells were solubilized with 0.05% sodium deoxycholate/0.1N NaOH (0.25 ml/well), an aliquot neutralized with 1N HCl, and radioactivity was determined by scintillation counting. Protein was quantified in an aliquot of the solubilized cells using a BIO-RAD protein assay kit, according to the manufacturer's directions.
(§4) Data Analysis: Competition curves were conducted in duplicate, using 10 concentrations of unlabeled drug. […] All data throughout the paper represent means±SEM.
(§5) Cells were grown under standard conditions (37° C., 5% CO2) in DMEM (Dulbecco's modified Eagles's medium; GIBCO, Grand Island, N.Y.).
(§6) Cells grown in 24-well plates were washed 3× with HEPES-buffered saline (HBS, in mM: NaCl, 150; HEPES, 20; CaCl2, 1; glucose, 10; KCl, 5; MgCl2 1; pH 7.4) and allowed to equilibrate on a 37° C. slide warmer. After 10 minutes the medium was removed and unlabeled drugs in HBS were added (450 μl/well). […] Plates were incubated at 37° C. for 10 minutes, then washed rapidly 3× with ice-cold HBS, using a 24-position plate washer (Brandel, Gaithersburg, Mass.; model PW-12). Cells were solubilized with 0.05% sodium deoxycholate/0.1N NaOH (0.25 ml/well), an aliquot neutralized with 1N HCl, and radioactivity was determined by scintillation counting. Protein was quantified in an aliquot of the solubilized cells using a BIO-RAD protein assay kit, according to the manufacturer's directions.
(§7) Competition curves were conducted in duplicate, using 10 concentrations of unlabeled drug. […] All data throughout the paper represent means±S.E.M.

Type 1 astrocytes = test: Inhibition of [3H]GABA uptake in Type 1 astrocyte cultures; assay type: cell-based, rat; conditions: read-out: IC50, Type 1 astrocytes, inhibition of [3H]GABA uptake
Experimental: Preparation of primary rat astrocyte cell cultures: Primary glial cultures were established from newborn Sprague-Dawley rat brains. Brains minus cerebella were removed aseptically and carefully dissected free of meninges. […] The cells were dissociated by trituration through a serological pipet. Separate procedures were then used for the preparation of Type-1 and O-2A/Type-2 astrocyte cultures, as will now be described.
For the preparation of Type-1 astrocyte cultures, cells were plated onto uncoated 75 cm^2 flasks at low density (1 brain per 10 flasks, or approximately 8×10^4 cells/cm^2). The medium was changed the following day and twice a week thereafter.
(§1) Data represent means±SEM.

neuronal cultures = test: Inhibition of [3H]GABA uptake in primary rat neuronal cultures; assay type: cell-based
Experimental: Brains were removed aseptically from E17 embryonic Sprague-Dawley rats brains, carefully dissected free of meninges, and kept on ice. A single-cell suspension was made by mincing the brains, followed by trituration through a serological pipet. […] On day three cytosine β-D-arabinofuransoside (3 μM) was added to control the proliferation of non-neuronal cells. The cultures were used for transport assay approximately one week after plating.
as §1

human GAT-3 = biological target: T2, human GAT-3 (Homo sapiens, UniProt P48066); test: Inhibition of [3H]GABA uptake, human GAT-3 stable LM(tk-) cell line; assay type: cell-based; conditions: read-out: IC50, human GAT-3, inhibition of [3H]GABA uptake, Table 9, means ± S.E.M.
T2 construct: expressed in transfected cells
T2 sequence (P48066 1-632): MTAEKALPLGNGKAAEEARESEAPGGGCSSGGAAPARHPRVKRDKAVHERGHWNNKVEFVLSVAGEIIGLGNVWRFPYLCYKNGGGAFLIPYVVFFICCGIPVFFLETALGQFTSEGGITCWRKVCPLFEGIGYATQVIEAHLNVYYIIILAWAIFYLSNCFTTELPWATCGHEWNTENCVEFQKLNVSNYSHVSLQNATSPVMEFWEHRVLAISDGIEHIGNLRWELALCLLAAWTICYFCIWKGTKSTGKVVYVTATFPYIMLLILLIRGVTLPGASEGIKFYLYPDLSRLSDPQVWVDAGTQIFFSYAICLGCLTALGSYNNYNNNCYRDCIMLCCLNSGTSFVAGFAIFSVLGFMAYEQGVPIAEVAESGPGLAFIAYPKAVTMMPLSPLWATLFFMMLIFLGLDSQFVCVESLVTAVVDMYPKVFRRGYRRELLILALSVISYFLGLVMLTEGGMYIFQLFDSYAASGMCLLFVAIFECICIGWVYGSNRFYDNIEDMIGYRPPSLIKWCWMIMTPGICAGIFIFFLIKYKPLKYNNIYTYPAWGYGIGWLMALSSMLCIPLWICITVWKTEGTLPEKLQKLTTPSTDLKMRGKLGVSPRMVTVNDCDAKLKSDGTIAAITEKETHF
Experimental: as §5, §6, §7

brain synaptosomes = conditions: Ali et al. (1985); cited from earlier work
[2] = literature reports; cited from earlier work
rat GAT-2 = biological target: T3, rat GAT-2 (Rattus norvegicus, UniProt P31646); test: Inhibition of [3H]GABA uptake, rat GAT-2 stable LM(tk-) cell line; assay type: cell-based; conditions: read-out: IC50, rat GAT-2, inhibition of [3H]GABA uptake, Table 9, means ± S.E.M.
T3 construct: expressed in transfected cells
T3 sequence (P31646 1-602): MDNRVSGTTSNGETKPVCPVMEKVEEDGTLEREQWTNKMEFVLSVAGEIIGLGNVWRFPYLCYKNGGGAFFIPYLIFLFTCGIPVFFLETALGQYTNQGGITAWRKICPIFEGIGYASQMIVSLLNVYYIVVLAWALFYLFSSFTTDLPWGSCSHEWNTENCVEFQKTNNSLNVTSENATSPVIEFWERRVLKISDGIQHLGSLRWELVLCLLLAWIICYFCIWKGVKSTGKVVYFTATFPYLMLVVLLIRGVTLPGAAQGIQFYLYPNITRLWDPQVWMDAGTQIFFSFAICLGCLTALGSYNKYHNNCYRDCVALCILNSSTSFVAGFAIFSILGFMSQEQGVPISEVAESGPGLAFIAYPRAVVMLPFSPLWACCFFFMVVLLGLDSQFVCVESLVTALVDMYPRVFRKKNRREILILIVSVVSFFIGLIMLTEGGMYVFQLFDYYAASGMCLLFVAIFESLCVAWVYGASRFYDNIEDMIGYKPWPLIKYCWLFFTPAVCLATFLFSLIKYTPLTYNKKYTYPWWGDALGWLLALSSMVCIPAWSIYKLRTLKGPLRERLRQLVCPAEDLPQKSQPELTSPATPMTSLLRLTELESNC
Experimental: as §5, §6, §7

human BGT-1 [3] = biological target: T1, human BGT-1
Experimental: as §2, §3, §4, §5, §6, §7

[4] = Phase II clinical trials; cited from earlier work
mouse GAT-2 [5] = biological target: T4, mouse GAT-2 (Mus musculus, UniProt P31651); parameters: host or cells: oocytes (Lopez-Corcuera et al., 1992); conditions: read-out: IC50, mouse GAT-2, inhibition of [3H]GABA uptake; oocytes (Lopez-Corcuera et al., 1992); except GABA estimated from percent inhibition at one or two concentrations; cited from earlier work
T4 sequence (P31651 1-614): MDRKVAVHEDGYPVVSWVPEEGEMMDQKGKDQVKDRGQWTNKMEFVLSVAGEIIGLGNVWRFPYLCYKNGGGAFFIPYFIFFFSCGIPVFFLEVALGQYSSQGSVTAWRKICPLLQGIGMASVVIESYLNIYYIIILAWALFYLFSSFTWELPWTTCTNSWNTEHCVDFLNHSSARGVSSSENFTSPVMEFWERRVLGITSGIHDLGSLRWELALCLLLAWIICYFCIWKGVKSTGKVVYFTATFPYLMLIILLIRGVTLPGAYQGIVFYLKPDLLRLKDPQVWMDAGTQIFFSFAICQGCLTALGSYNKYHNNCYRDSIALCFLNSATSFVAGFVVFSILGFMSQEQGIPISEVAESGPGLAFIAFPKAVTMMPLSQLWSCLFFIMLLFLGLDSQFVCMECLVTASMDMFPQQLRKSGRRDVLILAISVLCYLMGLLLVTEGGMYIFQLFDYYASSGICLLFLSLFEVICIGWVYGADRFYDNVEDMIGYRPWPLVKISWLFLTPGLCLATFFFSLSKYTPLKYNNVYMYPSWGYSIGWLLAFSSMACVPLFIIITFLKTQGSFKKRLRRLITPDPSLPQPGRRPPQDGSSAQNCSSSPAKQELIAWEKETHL

mouse GAT-2 [6] = biological target: T4, mouse GAT-2; conditions: from Table 1
human GAT-1 = human GAT-1 (Homo sapiens, UniProt P30531); conditions: read-out: IC50, human GAT-1, inhibition of [3H]GABA uptake; Table 9; stable LM(tk-) cell line; means ± S.E.M.
Experimental: as §5, §6, §7

GAT-1 = conditions: range over compounds and human/rat clones
Experimental: as §5, §6, §7

GAT-2 and GAT-3 [7] = conditions: range over clones, regardless of species
Experimental: as §5, §6, §7

rat brain aggregates = test: Inhibition of [3H]GABA uptake in rat brain aggregates; assay type: cell-based; conditions: read-out: IC50, control, inhibition of [3H]GABA uptake in rat brain aggregates
Experimental: Briefly, adult rat brains were removed from the skull and the cerebral cortex was dissected and placed in ice-cold HBS. […] The preparation was washed once by centrifugation, then resuspended in HBS.
The filters were washed with ice-cold HBS, punched into vials, and radioactivity determined by scintillation counting. Protein was determined in an aliquot of the aggregate preparation using the BIO-RAD protein assay kit.
as §1

GAT-2 and GAT-3 [8] = test: Inhibition of [3H]GABA uptake at cloned GAT-2 and GAT-3, text summary; conditions: read-out: IC50s at GAT-2 and GAT-3 (range); range over clones, regardless of species
Experimental: as §5, §6, §7

[9] = IC50, hBGT-1, inhibition of [3H]GABA uptake
[10] = IC50, hBGT-1, inhibition of [3H]GABA uptake, stably transfected LM(tk-), 50 nM [3H]GABA, mean ± standard error of at least three experiments
[11] = Rattus norvegicus, Astrocyte, 3 h

Chain of human GAT-1 (P30531 whole entry): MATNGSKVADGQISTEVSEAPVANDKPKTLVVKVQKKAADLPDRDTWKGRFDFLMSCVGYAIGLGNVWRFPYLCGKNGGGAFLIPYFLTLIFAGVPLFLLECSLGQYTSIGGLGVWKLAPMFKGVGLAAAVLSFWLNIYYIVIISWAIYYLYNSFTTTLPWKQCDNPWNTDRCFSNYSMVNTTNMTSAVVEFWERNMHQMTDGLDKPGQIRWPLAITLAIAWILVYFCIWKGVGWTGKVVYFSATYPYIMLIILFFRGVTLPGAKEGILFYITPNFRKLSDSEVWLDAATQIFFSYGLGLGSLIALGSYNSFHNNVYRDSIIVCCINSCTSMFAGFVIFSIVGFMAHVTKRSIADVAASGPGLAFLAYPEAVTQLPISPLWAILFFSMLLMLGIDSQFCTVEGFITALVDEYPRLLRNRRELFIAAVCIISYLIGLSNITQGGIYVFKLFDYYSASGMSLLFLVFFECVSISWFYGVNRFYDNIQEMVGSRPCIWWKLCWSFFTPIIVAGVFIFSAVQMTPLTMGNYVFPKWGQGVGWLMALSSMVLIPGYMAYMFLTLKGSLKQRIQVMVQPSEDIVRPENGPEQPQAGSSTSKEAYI

## O=C(O)C1CCCNC1 (racemic) [(±)-nipecotic acid, (R,S)-nipecotic acid]
Dog BGT-1
  IC50: 4700 µM

## N[C@@H]1CCC[C@H](C(=O)O)C1 (relative stereo) [ACHC, cis-3-aminocyclohexanecarboxylic acid]
Human BGT-1 [1]; [9]
  IC50: 1850 µM

## N=C(N)NCCS(=O)(=O)O [GES, guanidinoethanesulfonic acid]
Human BGT-1 [1]; [10]
  IC50: 1520 µM

## NCC[C@H](N)C(=O)O [L-DABA, L-(2,4)diaminobutyric acid]
Type 1 astrocytes; [11]
  IC50: 3400 µM
Dog BGT-1
  IC50: 4700 µM
Human BGT-1 [1]; [9]
  IC50: 160 to 600 µM and 354 µM

## O=C(O)C1=CCCN(CCON=C(c2ccccc2)c2ccccc2)C1 [NNC-711, 1-(2-(((diphenylmethylene)amino)oxy)ethyl)-1,2,4,6-tetrahydro-3-pyridinecarboxylic acid hydrochloride]
Neuronal cultures; read-out: specific [3H]GABA uptake that persisted in neuronal cultures
  activity at 10 µM: 31 ± 1%
Human BGT-1 [1]; [10]
  IC50: 160 to 600 µM

## O=C(O)C1CCCN(CCC=C(c2ccccc2)c2ccccc2)C1 (stereo not drawn) [SK&F 89976-A, N-(4,4-diphenyl-3-butenyl)-3-piperidinecarboxylic acid]
Human GAT-3
  IC50: 944 ± 259 µM
Brain synaptosomes
  increase in potency over the parent compound (nipecotic acid or guvacine): 20 fold
[2]
  anticonvulsive activity in animals: display anticonvulsive activity

## O=C(O)C1=CCCN(CCC=C(c2ccccc2)c2ccccc2)C1 [SK&F 100330-A]
Brain synaptosomes
  increase in potency over the parent compound (nipecotic acid or guvacine): 20 fold

## Cc1ccsc1C(=CCCN1CCC[C@@H](C(=O)O)C1)c1sccc1C [Tiagabine, (R)-1-[4,4-Bis(3-methyl-2-thienyl)-3-butenyl]-3-piperidencarboxylic acid]
Rat GAT-2
  IC50: 1410 ± 250 µM
Human GAT-3
  IC50: 917 ± 193 µM
Human BGT-1 [3]; read-out: IC50, human BGT-1, inhibition of [3H]GABA uptake, Table 9, stable LM(tk-) cell line, means ± S.E.M.
  IC50: 1670 ± 722 µM
[2]
  anticonvulsive activity in animals: display anticonvulsive activity
[4]
  anti-seizure activity in patients: demonstrated anti-seizure activity

## C[N+](C)(C)CC(=O)O [betaine]
Human BGT-1 [1]; [10]
  IC50: 934 ± 22 µM
Human BGT-1 [1]; IC50 at hBGT-1 as stated in text, stable LM(tk-) cells, [3H]GABA uptake
  IC50: 1000 to 2000 µM
Mouse GAT-2 [5]
  IC50: 206 µM
Mouse GAT-2 [6]
  selectivity (potency) for mouse BGT-1 as compared to dog BGT-1: 2 fold
  selectivity (potency) for mouse BGT-1 as compared to human BGT-1: 5 fold

## O=C(O)C1=CCCNC1 [guvacine]
Rat GAT-2
  IC50: 58 ± 5 µM
Human GAT-3
  IC50: 119 ± 24 µM
Human GAT-1
  IC50: 14 ± 3 µM
GAT-1
  IC50s at GAT-1 (range): 14 to 39 µM
GAT-2 and GAT-3 [7]
  IC50s at GAT-2 and GAT-3 (range): 102 to 378 µM
Mouse GAT-2 [5]
  IC50: 2800 µM

## NCCS(=O)O [hypotaurine]
Human BGT-1 [1]; [9]
  IC50: 160 to 600 µM and 380 µM

## O=C(CCc1ccc(O)cc1)c1c(O)cc(O)cc1O [phloretin]
Human BGT-1 [1]; [10]
  IC50: 160 to 600 µM and 160 µM

## C=C[C@H]1C[N@@]2CC[C@H]1C[C@@H]2[C@@H](O)c1ccnc2ccc(OC)cc12 [quinidine]
Human BGT-1 [1]; [9]
  IC50: 1190 µM
Mouse GAT-2 [5]
  IC50: 49 µM

## NCCS(=O)(=O)O [taurine]
Neuronal cultures; Neuron, read-out: IC50, Neurons, inhibition of [3H]GABA uptake
  IC50: 8300 µM
Type 1 astrocytes; [11]
  IC50: ~50 µM
Type 1 astrocytes
  IC50: 47 ± 10 µM
Rat brain aggregates; Rattus norvegicus
  IC50: 64000 µM
Human BGT-1 [1]; [9]
  IC50: 10600 µM
Human BGT-1 [1]; IC50 at hBGT-1 as stated in text
  IC50: > 10000 µM

## NCCC(=O)O [β-alanine]
Mouse GAT-2 [5]
  IC50: 1900 µM
GAT-2 and GAT-3 [8]
  IC50: 19 to 110 µM

## hydroxynipecotic acid
Rat brain aggregates; absence of NNC-711
  IC50: 10 ± 1 µM
Human BGT-1 [3]; read-out: IC50, hBGT-1, inhibition of [3H]GABA uptake
  IC50: 2590 µM
